Legend:
Kv11.1-3.1 [1] = experiment: Quantitative Western blot of Kv11.1-3.1 expression and trafficking (FG/CG bands) after overnight drug treatment; type: cell-based, human; settings: for Kv11.1-3.1 expression and trafficking rescue (FG band) by selective inhibitors of ALLN targets / Trafficking Rescue?: Western blot; for Kv11.1-3.1 expression and trafficking rescue (FG band) by selective inhibitors of ALLN targets: Kv11.1-3.1 cells, single agents or cocktails; for Trafficking Rescue?: Literature compounds screened for Kv11.1-3.1 trafficking rescue
Procedure: HEK 293 cells were cultured at 37 °C (5% CO2) in Glutamax® Dulbecco’s modified Eagle’s Medium/Ham’s F-12 (Life Technologies, Grand Island, NY) supplemented with 1x Non-essential amino acids (Life Technologies, Grand Island, NY), 1x Penicillin/Streptomycin (Life Technologies, Grand Island, NY) and 10% fetal bovine serum (Sigma Aldrich, Saint Louis, MO). For pharmacological treatments, drugs were dissolved in DMSO and added to media at DMSO final concentrations < 0.2%. Cells were incubated in drug-containing media for 16–20 hours prior to assays.
Cells were washed with ice-cold PBS, harvested in ice-cold PBS, and pelleted by centrifugation at 500 g for 5 minutes. Cell pellets were resuspended with Radioimmunoprecipitation assay (RIPA) buffer (Sigma Aldrich, Saint Louis, MO) and rotated at 4 °C for 1 hour. Lysates were cleared by centrifugation at 16,000 g for 10 minutes and supernatants were analyzed for total protein concentration using a BCA kit (Pierce, Rockford, Illinois). […] Proteins were transferred onto 0.45 μm nitrocellulose membranes and incubated for 1hr in Odyssey® PBS blocking buffer (Li-Cor Biosciences, Lincoln, NE). Membranes were probed with anti-HA (1:5,000, GeneTex, Irvine, CA) and anti-NaK-ATPase (1:2,500, GeneTex, Irvine, CA) primary antibodies in Odyssey® PBS blocking buffer overnight at 4 °C. Anti-HA and anti-NaK-ATPase signals were detected using IRdye 800 donkey anti-rabbit (1:20,000, Li-Cor Biosciences, Lincoln, NE) and IRdye 680 donkey anti-mouse (1:20,000, Li-Cor Biosciences), respectively. The Li-Cor Odyssey® imaging system and software was used for antibody detection and quantification.

Kv11.1-1A [2] = settings: 1A expressing cells
Kv11.1-3.1 [3] = target: T1, Kv11.1-3.1 (Homo sapiens, UniProt Q12809)
Kv11.1-1A [4] = experiment: Quantitative immunofluorescence / high content imaging of Kv11.1-1A (sub-cellular and cell surface); type: cell-based, human
Procedure: (§1) Stable HEK 293 cell lines expressing either the full-length (1A) or deletion Kv11.1 (3.1) channel variant were plated onto 24 well ibiTreat® plates (ibidi, Martinsried, Germany) and grown until 80–90% confluent. For sub-cellular co-localization studies, cells were fixed with 4% paraformaldehyde in PBS for 15 minutes. Cells were simultaneously permeabilized, blocked, and quenched for background fluorescence by incubation in a PBS solution containing 0.1% Triton X-100, 10% normal goat serum, and 0.75% glycine for 15 minutes. Cells were probed with primary antibodies: anti-extracellular loop hERG (1:1000, Sigma Aldrich, Saint Louis, MO), anti-calnexin (1:1000, Abcam, Cambridge, MA), anti-58K Golgi protein (1:200, Abcam), anti-20s proteasome β1 (1:200, Santa Cruz Biotechnology, Dallas, TX). […]. Cell surface labeling with anti-hERG antibody was performed as described above. Cell images were captured with the Operetta® high content imaging system and quantified with Columbus® image analysis suite (both PerkinElmer, Waltham, MA).
Electrophysisology data analysis was performed using Axograph X® (Axograph, Berkley, CA) All data is presented as mean ± SEM unless specified. […] Microscopy data was analyzed with linear mixed models with fixed effects for the treatment variables with a random intercept by replicate/well – hERG and RFP levels were log2-transformed prior to analysis. […]

Kv11.1-3.1 [5] = experiment: Co-immunoprecipitation of HA-tagged Kv11.1-3.1 probed for ubiquitin; type: cell-based, human; settings: bortezomib 16 hours vs DMSO
Procedure: (§2) Dynabeads Protein G® (Life Technologies, Grand Island, NY) were prepared according to the manufacturer’s instructions and incubated with HA.11 anti-HA antibody (BioLegend, San Diego, CA) for 30 minutes and then fixed with BS[3] crosslinking reagent (ThermoFischer Scientific, Waltham, MA) to prevent antibody dissociation. Equal amounts of cell lysates from stably expressing Kv11.1 cell lines were prepared as before and then incubated with the prepared beads overnight at 4 °C. Beads were washed and proteins were eluted per the manufacturer’s instructions and visualized via SDS-PAGE. Membranes were probed with the antibodies described previously and anti-ubiquitin (1:1000, Abcam, Cambridge, MA). Antibody detection was performed as before.

Kv11.1-3.1 [6] = target: T1, Kv11.1-3.1; settings: treated Kv11.1-3.1 cells, E4031 or DMSO controls, n = 16
Kv11.1-3.1 [7] = experiment: Quantitative immunofluorescence / high content imaging of Kv11.1-3.1 (sub-cellular and cell surface); type: cell-based, human
Procedure: as §1
Electrophysisology data analysis was performed using Axograph X® (Axograph, Berkley, CA) All data is presented as mean ± SEM unless specified. Unpaired T-tests, ANOVA, and subsequent Bonferroni corrections were completed using Prism (Graphpad, La Jolla, CA). Microscopy data was analyzed with linear mixed models with fixed effects for the treatment variables with a random intercept by replicate/well – hERG and RFP levels were log2-transformed prior to analysis. P values < 0.05 were accepted as significant.

Kv11.1-1A [8] = experiment: Co-immunoprecipitation of HA-tagged Kv11.1-1A probed for ubiquitin; type: cell-based, human; settings: bortezomib 16 hours vs DMSO
Procedure: as §2

hERG LQT2 mutants = settings: some LQT2 mutants; cited from earlier work

T1 sequence (Q12809 1-1063 isoform Q12809-7): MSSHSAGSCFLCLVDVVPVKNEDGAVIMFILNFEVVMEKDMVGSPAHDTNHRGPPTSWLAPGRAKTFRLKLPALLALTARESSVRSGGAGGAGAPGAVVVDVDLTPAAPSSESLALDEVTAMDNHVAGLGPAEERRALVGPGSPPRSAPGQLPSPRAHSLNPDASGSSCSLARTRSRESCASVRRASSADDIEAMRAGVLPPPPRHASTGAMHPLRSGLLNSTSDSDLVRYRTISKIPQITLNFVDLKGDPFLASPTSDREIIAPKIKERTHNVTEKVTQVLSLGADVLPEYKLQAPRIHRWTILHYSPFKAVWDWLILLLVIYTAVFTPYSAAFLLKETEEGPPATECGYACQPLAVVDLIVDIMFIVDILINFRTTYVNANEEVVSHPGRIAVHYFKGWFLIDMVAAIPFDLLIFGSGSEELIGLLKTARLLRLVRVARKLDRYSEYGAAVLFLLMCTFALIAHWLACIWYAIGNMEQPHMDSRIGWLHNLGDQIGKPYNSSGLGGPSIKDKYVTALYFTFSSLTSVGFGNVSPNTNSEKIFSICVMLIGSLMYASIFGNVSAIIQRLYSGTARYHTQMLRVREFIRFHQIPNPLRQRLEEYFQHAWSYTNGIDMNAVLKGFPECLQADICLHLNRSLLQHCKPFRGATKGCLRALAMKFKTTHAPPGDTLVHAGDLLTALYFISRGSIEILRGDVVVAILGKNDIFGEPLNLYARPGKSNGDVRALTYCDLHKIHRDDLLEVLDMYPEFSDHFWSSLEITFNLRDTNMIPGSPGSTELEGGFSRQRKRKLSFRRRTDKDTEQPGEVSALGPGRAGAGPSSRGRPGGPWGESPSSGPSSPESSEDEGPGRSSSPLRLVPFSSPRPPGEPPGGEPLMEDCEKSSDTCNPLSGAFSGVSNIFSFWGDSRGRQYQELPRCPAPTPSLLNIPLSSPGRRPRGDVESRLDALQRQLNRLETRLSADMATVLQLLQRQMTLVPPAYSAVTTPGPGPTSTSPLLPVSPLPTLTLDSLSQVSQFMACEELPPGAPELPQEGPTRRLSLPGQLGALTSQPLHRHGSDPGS

For `CCCNC(=O)[C@H]1O[C@@H]1C(=O)N[C@H](C(=O)N1CCC[C@H]1C(=O)O)[C@@H](C)CC` [CA 078], the “Kv11.1-3.1 expression and trafficking rescue (FG band) by selective inhibitors of ALLN targets” value (Kv11.1-3.1 [1]) was “only bortezomib was effective”.
In the case of `C[N+](C)(C)CCOC(N)=O.[Cl-]` [Carbamoylcholine Chloride], the “Trafficking Rescue?” value (Kv11.1-3.1 [1]) is reported as “No”.
In the case of `COc1cc(N)c(Cl)cc1C(=O)NC1CCN(CCCOc2ccc(F)cc2)CC1OC` (stereo not shown) [Cisapride], the “Trafficking Rescue?” value (Kv11.1-3.1 [1]) is reported as “No”.
With `COC(=O)Nc1nc2ccc(C(=O)c3cccs3)cc2[nH]1` [Nocodazole] the “Trafficking Rescue?” value (Kv11.1-3.1 [1]) was “No”.
For `O=C(O)/C(S)=C/c1ccc(I)cc1` [PD 150606], the “Kv11.1-3.1 expression and trafficking rescue (FG band) by selective inhibitors of ALLN targets” value (Kv11.1-3.1 [1]) was “only bortezomib was effective”.
For `O=C(O)c1ccccc1Nc1ccc(CCc2ccc(Cl)c(Cl)c2)cc1` [PD-118057], the “Trafficking Rescue?” value (Kv11.1-3.1 [1]) was “No”.
In the case of `CCc1ccccc1NC(=O)CSC(=O)NNC(=O)[C@H](Cc1c[nH]c2ccccc12)NC(=O)OC(C)(C)C` [SID 26681509], the “Kv11.1-3.1 expression and trafficking rescue (FG band) by selective inhibitors of ALLN targets” value (Kv11.1-3.1 [1]) is reported as “only bortezomib was effective”.
With `N#Cc1ccc(COC[C@H]2O[C@@H](n3c(NCc4ccc(Cl)c(Cl)c4)nc4c(N)ncnc43)[C@H](O)[C@@H]2O)cc1` [VER-155008] the “Trafficking Rescue?” value (Kv11.1-3.1 [1]) was “No”.
With `CC(C)C[C@H](NC(=O)[C@H](Cc1ccccc1)NC(=O)c1cnccn1)B(O)O` [bortezomib] the “increase of overall channel expression (Total hERG/NaK ATPase)” value (Kv11.1-3.1 [1]; Kv11.1-3.1 HEK 293 cells, bortezomib 10 nM) was 6 fold, the “trafficking efficiency (FG/Total hERG)” value (Kv11.1-3.1 [1]; Kv11.1-3.1 HEK 293 cells, bortezomib 10 nM, n = 4) was 25 ± 2% and the “Kv11.1-3.1 expression and trafficking rescue (FG band) by selective inhibitors of ALLN targets” value (Kv11.1-3.1 [1]) was “effective”. For the same compound, the “Kv11.1-1A band changes on Western blot” value (Kv11.1-1A [2]) was “only increasing 1A CG expression”, the “cell membrane capacitance normalized peak tail current” value (Kv11.1-3.1 [3]; bortezomib 10 nM treated Kv11.1-3.1 cells, n = 8) was 75.93 ± 11.84 pA/pF and the “effect on Kv11.1-3.1 deactivation rate kinetics (τ deactivation)” value (Kv11.1-3.1 [3]; treated Kv11.1-3.1 cells vs controls, n = 3) was “no effect”. The “elevation of Kv11.1 1A protein level (RFP-normalized fluorescence)” value (Kv11.1-1A [4]; Kv11.1-1A cells cultured with drug) was “modest elevation”, the “ratio of surface Kv11.1-1A/RFP, slope m of linear regression” value (Kv11.1-1A [4]; single cells, untreated m = 0.34) was 0.40 and the “ubiquitin signal of immunoprecipitated Kv11.1-3.1 channels” value (Kv11.1-3.1 [5]) was “decrease in ubiquitin signal”. For the same compound, the “signal to background ratio in thallium flux assay” value (Kv11.1-3.1 [6]) was “roughly 4 fold”, the “elevation of steady-state Kv11.1-3.1 protein level (RFP-normalized fluorescence)” value (Kv11.1-3.1 [7]; Kv11.1-3.1 cells cultured with drug, n = 3) was ~3 fold and the “Kv11.1-3.1 proteasome domain expression increase” value (Kv11.1-3.1 [7]; colocalization domain) was “not found to be significant”. For the same compound, the “Kv11.1-3.1 expression in cytoplasm, nuclear regions, ER and Golgi” value (Kv11.1-3.1 [7]; subcellular segmentation and colocalization domains) was “significantly increased”, the “factor of increase of surface Kv11.1-3.1/RFP ratio” value (Kv11.1-3.1 [7]; vs untreated Kv11.1-3.1) was 2 and the “ubiquitin signal of immunoprecipitated 1A channels” value (Kv11.1-1A [8]) was “accumulation of ubiquitin signal”.
In the case of `CC(=O)N[C@@H](CSC(=O)[C@]1([C@@H](O)C(C)C)NC(=O)[C@H](C)[C@@H]1O)C(=O)O` [lactacystin], the “hERG expression in LQT2 mutants” value (hERG LQT2 mutants) is listed as “increase hERG expression” and the “trafficking rescue in LQT2 mutants” value (hERG LQT2 mutants) is listed as “trafficking was unable to be rescued”.
